These are literature values, as cited in patent US20060110454A1 (priority 2004, published 2006).

Each structure is given as a SMILES string. Where a name gives a salt, the structure may show the parent alone.

Take `CCCN[C@H]1CCc2nc(N)sc2C1` [Pramipexole dihydrochloride, (S)-2-amino-4,5,6,7-tetrahydro-6-(propylamino)benzothiazole dihydrochloride monohydrate]: where the note is “ethanol”, the soluble in ethanol result is on record as “about 0.5%”. In addition, where the note is “methanol”, the soluble in methanol result is on record as “about 8%”. The soluble in water entry (water) was “more than 20%”.
